One data set has as its system db/db mice. The settings on record: female db/db mice; Dose 1 mg/kg, drug mixed with diet; difference between db/db control group and +/+ mice taken as 100%.
Data set [1] is described as follows: Oral absorption (Cmax) in dogs. It is filed as in vivo. The settings on record: sodium salt compared to the free compound.
The nature of data set [2]: Oral absorption (Cmax) in rats. The class given is in vivo. The conditions noted are these: sodium salt compared to the free compound.

In general, melting point refers to the temperature, or range, at which the solid turns liquid.

Description for db/db mice: Blood Sugar Level Depressing Activity in db/db Mice
Female C57BL/KsJ-dbm db+/db+, C57BL/KsJ-dbm +m/+m (Jackson Laboratory) mice (5 weeks old) were purchased and subjected to the test after 2-3 weeks of acclimating period.
The test drug was mixed with a powder diet (CE-2, Clea Japan, Inc.) in a mortar. In the case of administration in 100 mg/kg, the mixing proportion was 0.1%, in the case of 30 mg/kg, the proportion was 0.03% and in the case of 10 mg/kg, the proportion was 0.01%. The diet was changed twice a week for each group. The amount of the diet given and the amount left were recorded and the diet intake was calculated by determining the difference.
The female db/db mice were grouped according to body weight, blood sugar level and triglyceride concentration in plasma. […] The blood sugar level, triglyceride concentration in plasma and insulin concentration in plasma were measured at day 0 and day 14, and blood sugar level and triglyceride concentration in blood were measured at day 7.
Blood sugar level was measured using 10-15 μl of plasma and in accordance with glucose oxidase method (glucose CII-Test Wako, Wako Pure Chemicals Co., Ltd.). The triglyceride concentration in plasma was measured using 10-15 μl of plasma and in accordance with GPO-p-chlorophenol method (triglyceride G-Test Wako) or GPO-DAOS method (triglyceride E-Test Wako). […]

In turn, `CCCCCS(=O)(=O)NC(=O)c1ccc2nc(C)n(Cc3ccc(N(C)C(=O)OC(C)(C)C)cc3Cl)c2n1.[Na]` gave a melting point of 231 to 233 °C.

Take `CCCCS(=O)(=O)NC(=O)c1ccc2nc(C)n(Cc3ccc(NC(=O)OC(C)(C)C)cc3Cl)c2n1` [Example 109, 5-(1-butanesulfonylcarbamoyl)-3-(4-(N-t-butoxycarbonylamino)-2-chlorobenzyl)-2-methyl-3H-imidazo[4,5-b]pyridine]: the melting point was 229 to 230 °C.

`CCCCS(=O)(=O)NC(=O)c1ccc2nc(C)n(Cc3ccc(NC(=O)OCC)cc3Cl)c2n1` [Example 111, 3-(4-ethoxycarbonylamino-2-chlorobenzyl)-2-methyl-5-(1-butanesulfonylcarbamoyl)-3H-imidazo[4,5-b]pyridine]: the melting point lay in the range of 236 to 237 °C.

`CCCCCOc1ccc(Cn2c(C)nc3ccc(C(=O)NS(=O)(=O)CCCCC)nc32)c(Cl)c1` [Example 20, 3-(2-chloro-4-(1-pentyloxy)benzyl)-2-methyl-5-(1-pentanesulfonylcarbamoyl)-3H-imidazo[4,5-b]pyridine] had a melting point of 128 to 131 °C.

For `CCCCCS(=O)(=O)NC(=O)c1ccc2nc(C)n(Cc3ncc(NC(=O)OC(C)C)cc3Cl)c2n1` [Example 135, 3-[(5-(N-(isopropoxycarbonyl)amino)-3-chloropyridin-2-yl)methyl]-2-methyl-5-(1-pentanesulfonylcarbamoyl)-3H-imidazo[4,5-b]pyridine], the melting point fell in the range of 228 to 230 °C.

Consider `CCCCCS(=O)(=O)NC(=O)c1ccc2nc(C)n(Cc3ccc(OCC)cc3Cl)c2n1` [Example 8, 3-(2-chloro-4-ethoxybenzyl)-2-methyl-5-(1-pentanesulfonylcarbamoyl)-3H-imidazo[4,5-b]pyridine], for which the melting point fell in the range of 165 to 166 °C.

`CCCCCOc1ccc(Cn2c(C)nc3ccc(C(=O)NS(=O)(=O)CCCC)nc32)c(Cl)c1` [Example 21, 5-(1-butanesulfonylcarbamoyl)-3-(2-chloro-4-(1-pentyloxy)benzyl)-2-methyl-3H-imidazo[4,5-b]pyridine]: the melting point fell in the range of 145 to 146 °C.

As to `CCCCCS(=O)(=O)NC(=O)c1ccc2nc(C)n(Cc3ccc(NC(=O)OC(C)(C)C)cc3Cl)c2n1` [Example 97, 3-(4-(N-(tert-butoxycarbonyl)amino)-2-chlorobenzyl)-2-methyl-5-(1-pentanesulfonylcarbamoyl)-3H-imidazo[4,5-b]pyridine], the melting point fell in the range of 222 to 224 °C.

Molecule `CCCCCS(=O)(=O)NC(=O)c1ccc2nc(C)n(Cc3ccc(OC)cc3Cl)c2n1` [Example 5, 3-(2-chloro-4-methoxybenzyl)-2-methyl-5-(1-pentanesulfonylcarbamoyl)-3H-imidazo[4,5-b]pyridine] displayed a melting point of 188 to 189 °C.

Molecule `CCC/C=C/S(=O)(=O)NC(=O)c1ccc2nc(C)n(Cc3ccc(NC(=O)OCC)cc3Cl)c2n1` [Example 114, 3-(4-ethoxycarbonylamino-2-chlorobenzyl)-2-methyl-5-((E)-1-penten-1-ylsulfonylcarbamoyl)-3H-imidazo[4,5-b]pyridine] registered a melting point of 233 to 234 °C.

As to `CCCOc1ccc(Cn2c(C)nc3c(C)cc(C(=O)NS(=O)(=O)c4ccc(C)cc4)nc32)c(Cl)c1` [Compound A, 3-(2-Chloro-4-(1-propoxy)benzyl)-2,7-dimethyl-5-[(4-methylbenzene)sulfonylcarbamoyl]-3H-imidazo[4,5-b]pyridine], the “Blood sugar decrease (%)” value in the data set on db/db mice turned out to be 97%.

As for `CCCCCS(=O)(=O)NC(=O)c1ccc2nc(C)n(Cc3ccc(OCCCC)cc3Cl)c2n1` [Example 17, 3-(2-chloro-4-(1-butoxy)benzyl)-2-methyl-5-(1-pentanesulfonylcarbamoyl)-3H-imidazo[4,5-b]pyridine], the melting point was in the range of 133 to 136 °C.

In turn, `CCCCCS(=O)(=O)NC(=O)c1ccc2nc(C)n(Cc3ccc(N(C)C(=O)C(C)(C)C)cc3Cl)c2n1` [Example 64, 3-(2-chloro-4-(methyl(pivaloyl)amino)benzyl)-2-methyl-5-(1-pentanesulfonylcarbamoyl)-3H-imidazo[4,5-b]pyridine] had a melting point of 207 to 208 °C.

With `CCCCCS(=O)(=O)NC(=O)c1ccc2nc(C)n(Cc3ncc(NC(=O)OC(C)(C)C)cc3Cl)c2n1` [Example 129, 3-[(5-(N-(tert-butoxycarbonyl)amino)-3-chloropyridin-2-yl)methyl]-2-methyl-5-(1-pentanesulfonylcarbamoyl)-3H-imidazo[4,5-b]pyridine], the melting point lay within 193 to 194 °C.

As to `CCCCCS(=O)(=O)NC(=O)c1ccc2nc(C)n(Cc3ccc4c(nc(C)n4C)c3Cl)c2n1` [Example 120, 3-[(4-chloro-1,2-dimethyl-1H-benzimidazol-5-yl)methyl]-2-methyl-5-(1-pentanesulfonylcarbamoyl)-3H-imidazo[4,5-b]pyridine], the melting point lay within 229 to 231 °C.

In the case of `CCCCCS(=O)(=O)NC(=O)c1ccc2nc(C)n(Cc3ncc(NC(=O)OCC)cc3Cl)c2n1` [Example 132, 3-[(3-chloro-5-(N-(ethoxycarbonyl)amino)pyridin-2-yl)methyl]-2-methyl-5-(1-pentanesulfonylcarbamoyl)-3H-imidazo[4,5-b]pyridine], the melting point fell in the range of 232 to 233 °C.

With `CCCCS(=O)(=O)NC(=O)c1ccc2nc(C)n(Cc3ccc(NC(=O)OC(C)C)cc3Cl)c2n1` [Example 103, 5-(1-butanesulfonylcarbamoyl)-3-(2-chloro-4-(N-(isopropoxycarbonyl)amino)benzyl)-2-methyl-3H-imidazo[4,5-b]pyridine], the melting point lay in the range of 181 to 182 °C.

On to `CCCCCN(C)c1ccc(Cn2c(C)nc3ccc(C(=O)NS(=O)(=O)CCCCC)nc32)c(Cl)c1` [Example 52, 3-(2-chloro-4-(methyl-(1-pentyl)amino)benzyl)-2-methyl-5-(1-pentanesulfonylcarbamoyl)-3H-imidazo[4,5-b]pyridine], for which the melting point is 83 to 85 °C.

`CCCCCS(=O)(=O)NC(=O)c1ccc2nc(C)n(Cc3ccc(-c4ccccc4)nc3Cl)c2n1` [Example 127, 3-[(2-chloro-6-phenylpyridin-3-yl)methyl]-2-methyl-5-(1-pentanesulfonylcarbamoyl)-3H-imidazo[4,5-b]pyridine] gave a melting point of 224 to 225 °C.

In turn, `CCCCCS(=O)(=O)NC(=O)c1cc(C)c2nc(C)n(Cc3ccc(C#Cc4ccccc4)cc3Cl)c2n1.[Na]` returned a melting point of 175 to 178 °C.

Turning to `CCCCCS(=O)(=O)NC(=O)c1ccc2nc(C)n(Cc3ccc(-c4ccco4)cc3Cl)c2n1` [Example 70, 3-[2-chloro-4-(2-furyl)benzyl]-2-methyl-5-(1-pentanesulfonylcarbamoyl)-3H-imidazo[4,5-b]pyridine], the melting point lay in the range of 184 to 185 °C.

The molecule `CCCCCS(=O)(=O)NC(=O)c1cc(C)c2nc(C)n(Cc3ccc(N(C)C(=O)OC(C)(C)C)cc3Cl)c2n1` [Example 77, 3-(4-(N-(tert-butoxycarbonyl)-N-methylamino)-2-chlorobenzyl)-2,7-dimethyl-5-(1-pentanesulfonylcarbamoyl)-3H-imidazo[4,5-b]pyridine] gave a melting point of 193 to 194 °C.

`CCCCCS(=O)(=O)NC(=O)c1ccc2nc(C)n(Cc3ccc(OCC4CCCCC4)cc3Cl)c2n1.[Na]` [Example 85, 3-[2-chloro-4-(cyclohexylmethyloxy)benzyl]-2-methyl-5-(1-pentanesulfonylcarbamoyl)-3H-imidazo[4,5-b]pyridine sodium salt] yielded a melting point of more than 250 °C. The “Cmax, times greater than the free (non-salt) compound” value in data set [1] is listed as “about 16 times”. Moreover, the “Cmax, times greater than the free (non-salt) compound” value in data set [2] (rats, oral) lay in the range of 2 to 3 times. Moreover, in data set [2] (demonstrated by Cmax in rats and dogs), the “oral absorption as compared to the free (non-salt) compound” value was “markedly improved”.

`CCCCCS(=O)(=O)NC(=O)c1ccc2nc(C)n(Cc3ncc(Cl)cc3Cl)c2n1` [Example 123, 3-[(3,5-dichloropyridin-2-yl)methyl]-2-methyl-5-(1-pentanesulfonylcarbamoyl)-3H-imidazo[4,5-b]pyridine] had a melting point of 155 to 156 °C.

Consider `CCCCCS(=O)(=O)NC(=O)c1ccc2nc(C)n(Cc3ccc(N(C)CC4CCCCC4)cc3Cl)c2n1` [Example 53, 3-(2-chloro-4-(N-(cyclohexylmethyl)methylamino)benzyl)-2-methyl-5-(1-pentanesulfonylcarbamoyl)-3H-imidazo[4,5-b]pyridine], for which the melting point fell in the range of 169 to 170 °C.

In turn, `CCCCCS(=O)(=O)NC(=O)c1ccc2nc(C)n(Cc3ccc(N(C)CCCC)cc3Cl)c2n1` [Example 45, 3-(4-((1-butyl)methylamino)-2-chlorobenzyl)-2-methyl-5-(1-pentanesulfonylcarbamoyl)-3H-imidazo[4,5-b]pyridine] gave a melting point of 129 to 130 °C.

Turning to `CCCCCS(=O)(=O)NC(=O)c1cc(C)c2nc(C)n(Cc3ccc(OCCC)cc3Cl)c2n1` [Example 35, 3-(2-chloro-4-(1-propoxy)benzyl)-2,7-dimethyl-5-(1-pentanesulfonylcarbamoyl)-3H-imidazo[4,5-b]pyridine], the melting point lay within 161 to 162 °C.

For the molecule `CCCCNS(=O)(=O)NC(=O)c1ccc2nc(C)n(Cc3ccc(OCC)cc3Cl)c2n1` [Example 11, 5-((1-butylaminosulfonyl)carbamoyl)-3-(2-chloro-4-ethoxybenzyl)-2-methyl-3H-imidazo[4,5-b]pyridine], the melting point lay within 175 to 177 °C.
